Measurements from ChEMBL document CHEMBL1649134, “Occurrence of efflux mechanism and cephalosporinase variant in a population of Enterobacter aerogenes and Klebsiella pneumoniae isolates producing extended-spectrum beta-lactamases” (2009).
≈ marks a conversion by molar mass, not a printed value.

How the values were obtained:
[1] = test system: Klebsiella pneumoniae; assay: Antimicrobial activity against multidrug resistant Klebsiella pneumoniae isolate 16 by broth dilution method; type: functional
[2] = test system: Escherichia coli; assay: microbe, parasite or virus in culture; settings: DH5[alpha]
Description: Antimicrobial activity against multidrug resistant Escherichia coli DH5[alpha] harboring pACM204 plasmid by broth dilution method

[3] = test system: Klebsiella pneumoniae; assay: Antimicrobial activity against multidrug resistant Klebsiella pneumoniae isolate 12 by broth dilution method; type: functional
[4] = test system: Klebsiella aerogenes; assay: Antimicrobial activity against multidrug resistant Enterobacter aerogenes isolate 23 by broth dilution method; type: functional
[5] = test system: Klebsiella pneumoniae; assay: Antimicrobial activity against multidrug resistant Klebsiella pneumoniae isolate 5 by broth dilution method; type: functional
[6] = test system: Klebsiella aerogenes; assay: Antimicrobial activity against multidrug resistant Enterobacter aerogenes isolate 22 by broth dilution method; type: functional
[7] = test system: Klebsiella aerogenes; assay: Antimicrobial activity against multidrug resistant Enterobacter aerogenes isolate 11 by broth dilution method; type: functional
[8] = test system: Klebsiella aerogenes; assay: Antimicrobial activity against multidrug resistant Enterobacter aerogenes isolate 27 by broth dilution method; type: functional
[9] = test system: Klebsiella aerogenes; assay: Antimicrobial activity against multidrug resistant Enterobacter aerogenes isolate 20 by broth dilution method; type: functional
[10] = test system: Klebsiella aerogenes; assay: Antimicrobial activity against multidrug resistant Enterobacter aerogenes isolate 10 by broth dilution method; type: functional
[11] = test system: Klebsiella pneumoniae; assay: Antimicrobial activity against multidrug resistant Klebsiella pneumoniae isolate 15 by broth dilution method; type: functional
[12] = test system: Klebsiella aerogenes; assay: Antimicrobial activity against multidrug resistant Enterobacter aerogenes isolate 17 by broth dilution method; type: functional
[13] = test system: Klebsiella aerogenes; assay: Antimicrobial activity against multidrug resistant Enterobacter aerogenes isolate 1 by broth dilution method; type: functional
[14] = test system: Escherichia coli; assay: microbe, parasite or virus in culture; settings: DH5[alpha]; remark: listed apart in the source
Description: Antimicrobial activity against multidrug resistant Escherichia coli DH5[alpha] harboring pDrive plasmid expressing ampC gene by broth dilution method

[15] = test system: Klebsiella aerogenes; assay: Antimicrobial activity against multidrug resistant Enterobacter aerogenes ATCC 15038 harboring pACM204 plasmid by broth dilution method; type: functional
[16] = test system: Klebsiella aerogenes; assay: Antimicrobial activity against multidrug resistant Enterobacter aerogenes isolate 24 by broth dilution method; type: functional
[17] = test system: Klebsiella aerogenes; assay: Antimicrobial activity against multidrug resistant Enterobacter aerogenes isolate 12 by broth dilution method; type: functional
[18] = test system: Klebsiella aerogenes; assay: Antimicrobial activity against multidrug resistant Enterobacter aerogenes isolate 13 by broth dilution method; type: functional
[19] = test system: Klebsiella pneumoniae; assay: Antimicrobial activity against multidrug resistant Klebsiella pneumoniae isolate 10 by broth dilution method; type: functional
[20] = test system: Escherichia coli; assay: microbe, parasite or virus in culture; settings: DH5[alpha]; remark: listed apart in the source
Description: Antimicrobial activity against multidrug resistant Escherichia coli DH5[alpha] by broth dilution method

[21] = test system: Klebsiella aerogenes; assay: Antimicrobial activity against multidrug resistant Enterobacter aerogenes isolate 7 by broth dilution method; type: functional
[22] = test system: Klebsiella aerogenes; assay: Antimicrobial activity against multidrug resistant Enterobacter aerogenes isolate 8 by broth dilution method; type: functional
[23] = test system: Klebsiella aerogenes; assay: Antimicrobial activity against multidrug resistant Enterobacter aerogenes isolate 25 by broth dilution method; type: functional
[24] = test system: Escherichia coli; assay: microbe, parasite or virus in culture; settings: DH5[alpha]; remark: listed apart in the source
Description: Antimicrobial activity against multidrug resistant Escherichia coli DH5[alpha] harboring pDrive plasmid by broth dilution method

[25] = test system: Klebsiella pneumoniae; assay: Antimicrobial activity against multidrug resistant Klebsiella pneumoniae ATCC 11296 by broth dilution method; type: functional
[26] = test system: Klebsiella pneumoniae; assay: Antimicrobial activity against multidrug resistant Klebsiella pneumoniae isolate 2 by broth dilution method; type: functional
[27] = test system: Klebsiella aerogenes; assay: Antimicrobial activity against multidrug resistant Enterobacter aerogenes isolate 16 by broth dilution method; type: functional
[28] = test system: Klebsiella aerogenes; assay: Antimicrobial activity against multidrug resistant Enterobacter aerogenes isolate 21 by broth dilution method; type: functional
[29] = test system: Escherichia coli; assay: Antimicrobial activity against multidrug resistant Escherichia coli ATCC 35218 by broth dilution method; type: functional
[30] = test system: Klebsiella pneumoniae; assay: Antimicrobial activity against multidrug resistant Klebsiella pneumoniae isolate 4 by broth dilution method; type: functional
[31] = test system: Escherichia coli; assay: microbe, parasite or virus in culture; settings: ATCC 35218
Description: Antimicrobial activity against multidrug resistant Escherichia coli ATCC 35218 harboring pDrive plasmid by broth dilution method

[32] = test system: Klebsiella aerogenes; assay: Antimicrobial activity against multidrug resistant Enterobacter aerogenes isolate 3 by broth dilution method; type: functional
[33] = test system: Escherichia coli; assay: microbe, parasite or virus in culture; settings: ATCC 35218; remark: listed apart in the source
Description: Antimicrobial activity against multidrug resistant Escherichia coli ATCC 35218 harboring pDrive plasmid expressing ampC gene by broth dilution method

[34] = test system: Klebsiella aerogenes; assay: Antimicrobial activity against multidrug resistant Enterobacter aerogenes isolate 2 by broth dilution method; type: functional
[35] = test system: Klebsiella pneumoniae; assay: Antimicrobial activity against multidrug resistant Klebsiella pneumoniae isolate 3 by broth dilution method; type: functional
[36] = test system: Klebsiella aerogenes; assay: Antimicrobial activity against multidrug resistant Enterobacter aerogenes isolate 4 by broth dilution method; type: functional
[37] = test system: Klebsiella pneumoniae; assay: Antimicrobial activity against multidrug resistant Klebsiella pneumoniae isolate 8 by broth dilution method; type: functional
[38] = test system: Klebsiella aerogenes; assay: Antimicrobial activity against multidrug resistant Enterobacter aerogenes isolate 18 by broth dilution method; type: functional
[39] = test system: Klebsiella aerogenes; assay: Antimicrobial activity against multidrug resistant Enterobacter aerogenes isolate 6 by broth dilution method; type: functional
[40] = test system: Klebsiella aerogenes; assay: Antimicrobial activity against multidrug resistant Enterobacter aerogenes isolate 5 by broth dilution method; type: functional
[41] = test system: Klebsiella pneumoniae; assay: Antimicrobial activity against multidrug resistant Klebsiella pneumoniae isolate 7 by broth dilution method; type: functional
[42] = test system: Klebsiella pneumoniae; assay: Antimicrobial activity against multidrug resistant Klebsiella pneumoniae isolate 1 by broth dilution method; type: functional
[43] = test system: Klebsiella aerogenes; assay: Antimicrobial activity against multidrug resistant Enterobacter aerogenes isolate 15 by broth dilution method; type: functional
[44] = test system: Klebsiella pneumoniae; assay: Antimicrobial activity against multidrug resistant Klebsiella pneumoniae isolate 13 by broth dilution method; type: functional
[45] = test system: Klebsiella pneumoniae; assay: Antimicrobial activity against multidrug resistant Klebsiella pneumoniae isolate 6 by broth dilution method; type: functional
[46] = test system: Klebsiella aerogenes; assay: Antimicrobial activity against multidrug resistant Enterobacter aerogenes isolate 9 by broth dilution method; type: functional
[47] = test system: Klebsiella pneumoniae; assay: Antimicrobial activity against multidrug resistant Klebsiella pneumoniae isolate 11 by broth dilution method; type: functional
[48] = test system: Klebsiella aerogenes; assay: Antimicrobial activity against multidrug resistant Enterobacter aerogenes isolate 26 by broth dilution method; type: functional
[49] = test system: Klebsiella aerogenes; assay: Antimicrobial activity against multidrug resistant Enterobacter aerogenes ATCC 15038 harboring pDrive plasmid expressing ampC gene by broth dilution method; type: functional
[50] = test system: Klebsiella aerogenes; assay: Antimicrobial activity against multidrug resistant Enterobacter aerogenes ATCC 15038 harboring pDrive plasmid by broth dilution method; type: functional
[51] = test system: Klebsiella aerogenes; assay: Antimicrobial activity against multidrug resistant Enterobacter aerogenes ATCC 15038 by broth dilution method; type: functional
[52] = test system: Klebsiella pneumoniae; assay: Antimicrobial activity against multidrug resistant Klebsiella pneumoniae isolate 14 by broth dilution method; type: functional
[53] = test system: Klebsiella pneumoniae; assay: Antimicrobial activity against multidrug resistant Klebsiella pneumoniae isolate 9 by broth dilution method; type: functional
[54] = test system: Klebsiella aerogenes; assay: Antimicrobial activity against multidrug resistant Enterobacter aerogenes isolate 19 by broth dilution method; type: functional
[55] = test system: Klebsiella aerogenes; assay: Antimicrobial activity against multidrug resistant Enterobacter aerogenes isolate 14 by broth dilution method; type: functional

## C[C@@H](O)[C@H]1C(=O)N2C(C(=O)O)=C(SCCNC=N)C[C@H]12 [IMIPENEM ANHYDROUS]
[1]
  MIC: 0.5 µg/mL (≈ 1.67 µM)
[2]
  MIC: 0.5 µg/mL (≈ 1.67 µM)
[3]
  MIC: 1 µg/mL (≈ 3.34 µM)
[4]
  MIC: 1 µg/mL (≈ 3.34 µM)
[5]
  MIC: 0.5 µg/mL (≈ 1.67 µM)
[6]
  MIC: 1 µg/mL (≈ 3.34 µM)
[7]
  MIC: 1 µg/mL (≈ 3.34 µM)
[8]
  MIC: 1 µg/mL (≈ 3.34 µM)
[9]
  MIC: 1 µg/mL (≈ 3.34 µM)
[10]
  MIC: 1 µg/mL (≈ 3.34 µM)
[11]
  MIC: 1 µg/mL (≈ 3.34 µM)
[12]
  MIC: 1 µg/mL (≈ 3.34 µM)
[13]
  MIC: 1 µg/mL (≈ 3.34 µM)
[14]
  MIC: 2 µg/mL (≈ 6.68 µM)
[15]
  MIC: 0.5 µg/mL (≈ 1.67 µM)
[16]
  MIC: 1 µg/mL (≈ 3.34 µM)
[17]
  MIC: 1 µg/mL (≈ 3.34 µM)
[18]
  MIC: 2 µg/mL (≈ 6.68 µM)
[19]
  MIC: 0.5 µg/mL (≈ 1.67 µM)
[20]
  MIC: 0.25 µg/mL (≈ 0.835 µM)
[21]
  MIC: 2 µg/mL (≈ 6.68 µM)
[22]
  MIC: 1 µg/mL (≈ 3.34 µM)
[23]
  MIC: 1 µg/mL (≈ 3.34 µM)
[24]
  MIC: 0.25 µg/mL (≈ 0.835 µM)
[25]
  MIC: 0.5 µg/mL (≈ 1.67 µM)
[26]
  MIC: 0.25 µg/mL (≈ 0.835 µM)
[27]
  MIC: 1 µg/mL (≈ 3.34 µM)
[28]
  MIC: 2 µg/mL (≈ 6.68 µM)
[29]
  MIC: 0.125 µg/mL (≈ 0.418 µM)
[30]
  MIC: 1 µg/mL (≈ 3.34 µM)
[31]
  MIC: 0.25 µg/mL (≈ 0.835 µM)
[32]
  MIC: 1 µg/mL (≈ 3.34 µM)
[33]
  MIC: 0.5 µg/mL (≈ 1.67 µM)
[34]
  MIC: 1 µg/mL (≈ 3.34 µM)
[35]
  MIC: 2 µg/mL (≈ 6.68 µM)
[36]
  MIC: 1 µg/mL (≈ 3.34 µM)
[37]
  MIC: 0.5 µg/mL (≈ 1.67 µM)
[38]
  MIC: 1 µg/mL (≈ 3.34 µM)
[39]
  MIC: 1 µg/mL (≈ 3.34 µM)
[40]
  MIC: 2 µg/mL (≈ 6.68 µM)
[41]
  MIC: 0.5 µg/mL (≈ 1.67 µM)
[42]
  MIC: 0.25 µg/mL (≈ 0.835 µM)
[43]
  MIC: 0.5 µg/mL (≈ 1.67 µM)
[44]
  MIC: 1 µg/mL (≈ 3.34 µM)
[45]
  MIC: 0.5 µg/mL (≈ 1.67 µM)
[46]
  MIC: 1 µg/mL (≈ 3.34 µM)
[47]
  MIC: 0.5 µg/mL (≈ 1.67 µM)
[48]
  MIC: 1 µg/mL (≈ 3.34 µM)
[49]
  MIC: 2 µg/mL (≈ 6.68 µM)
[50]
  MIC: 0.5 µg/mL (≈ 1.67 µM)
[51]
  MIC: 0.25 µg/mL (≈ 0.835 µM)
[52]
  MIC: 0.5 µg/mL (≈ 1.67 µM)
[53]
  MIC: 0.5 µg/mL (≈ 1.67 µM)
[54]
  MIC: 2 µg/mL (≈ 6.68 µM)
[55]
  MIC: 2 µg/mL (≈ 6.68 µM)
